Experimental findings from patent publication US12186358B2, “Compositions and methods for supporting immune health” (Plexus Worldwide, LLC, priority 2021, dated 2025) are described below.

Common to all, as to assay type: cell-based, Human
Holding throughout (settings): LPS 0.1 ng/mL

The subject of one assay is IFNγ. Briefly: Cytokine expression in PBMC supernatants (Luminex multiplex): IFNγ. The protocol:
(§1) An exemplary natural-based composition is evaluated in an in vitro Peripheral Blood […] Cells cellular inflammation model.
(§2) Test Item Preparation: 120 mg of the exemplary composition (Project Shield) was dissolved in 6000 μL of CGM on the day of use to create a 2% (w/v) Dilution Stock Solution. A 2 ng/mL Working Stock of Lipopolysaccharides (“LPS”) was prepared fresh with IM and stored at 2-8° C. 10 μL LPS (2 ng/mL) was added to the appropriate wells for a final concentration of 0.1 ng/mL.
(§3) Complete Growth Media (CGM): To formulate CGM, RPMI was supplemented with 10% FBS and 100 U/mL penicillin+100 μg/mL streptomycin. CGM was prepared aseptically and stored at 2-8° C. for the duration of the study. CGM was warmed to 37° C. prior to use.
(§4) Cell Culture Set-up: Cells were thawed according to manufacturer's instructions, washed in CGM and assessed for viability using trypan blue staining. A stock cell solution of 2×10^6 cells/mL suspended in CGM was prepared. 100 μL of the stock solution was added to appropriate wells of a 96-well plate to seed 2×10^5 cells per well. […]
(§5) As illustrated in FIGS. 1-8, inflammatory cytokine expression for cell supernatants at 48 hours post stimulation/treatment. Expression was assessed by multiplex using the Luminex platform for the following cytokines: IFNγ, IL-1β, IL-6, IL-8, IL-10, IL-12p40, IL-12p70, TNF-α. […]

Another assay concerns IL-1β. Briefly: Cytokine expression in PBMC supernatants (Luminex multiplex): IL-1β. Here is the method: as §1, §2, §3, §4, §5
A further assay concerns IL-6. Kind of assay: Cytokine expression in PBMC supernatants (Luminex multiplex): IL-6. Here is the method:
as §1, §2, §3, §4, §5

The test system of a further assay is IL-8. Kind of assay: Cytokine expression in PBMC supernatants (Luminex multiplex): IL-8. The protocol:
as §1, §2, §3, §4, §5

The test system of a further assay is IL-10. Briefly: Cytokine expression in PBMC supernatants (Luminex multiplex): IL-10. The protocol: as §1, §2, §3, §4, §5
In the next assay the test system is IL-12p40. Kind of assay: Cytokine expression in PBMC supernatants (Luminex multiplex): IL-12p40. The protocol:
as §1, §2, §3, §4, §5

Another assay deals with IL-12p70. Briefly: Cytokine expression in PBMC supernatants (Luminex multiplex): IL-12p70. Here is the method:
as §1, §2, §3, §4, §5

In another assay the test system is TNF-α. Briefly: Cytokine expression in PBMC supernatants (Luminex multiplex): TNF-α. The protocol:
as §1, §2, §3, §4, §5

Regarding Lipopolysaccharides [LPS], the “IFNγ, LPS control Group vs Media Control” value with IFNγ (donor 1, 48 h) was “significantly increased”; in the assay with IFNγ (donor 2, 48 h), “significantly increased”. Moreover, the “IL-1β, LPS control Group vs Media Control” value in the assay with IL-1β (donor 1, 48 h) was “not significantly increased”; with IL-1β (donor 2, 48 h) it was “not significantly increased”. Also, the “IL-6, LPS control Group vs Media Control” value was “significantly increased” with IL-6 (donor 1, 48 h) and “significantly increased” in the assay with IL-6 (donor 2, 48 h). The “IL-8, LPS control Group vs Media Control” value in the assay on IL-8 (donor 1, 48 h) is “not donor 1”; with IL-8 (donor 2, 48 h), “significantly increased”. For the same substance, the “IL-10, LPS control Group vs Media Control” value is “significantly increased” in the assay on IL-10 (donor 1, 48 h) and “not donor 2” in the assay with IL-10 (donor 2, 48 h). Further, the “IL-12p40, LPS control Group vs Media Control” value in the assay on IL-12p40 (donor 1, 48 h) is on record as “significantly increased”; in the assay with IL-12p40 (donor 2, 48 h), “significantly increased”. Further, the “IL-12p70, LPS control Group vs Media Control” value in the assay with IL-12p70 (donor 1, 48 h) is “significantly increased”; in the assay on IL-12p70 (donor 2, 48 h), “significantly increased”. Besides, the “TNF-α, LPS control Group vs Media Control” value in the assay on TNF-α (donor 1, 48 h) is listed as “not donor 1”; in the assay on TNF-α (donor 2, 48 h), “significantly increased”.
